Source: article PMC6337391 (Molecules, 2019)
Read-outs that look alike come from different tables or passages of the source.

Experiments:
[1] = ABTS•+ decolorization assay
Summary of the method: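 Compounds (10 mM DMSO stocks, diluted) added to ABTS•+ radical generated by potassium persulfate oxidation of ABTS. Decolorization followed as absorbance at room temperature, with Trolox as standard.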

[2] = Inhibition of linoleic acid lipid peroxidation (AAPH)
Summary of the method: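 Sodium linoleate oxidation was initiated by AAPH in 0.05 M phosphate buffer, pH 7.4, at 37 °C, with test compound present and DMSO as blank. Conjugated diene hydroperoxide formation was followed as the absorbance increase at 234 nm.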

[3] = In vitro lipid peroxidation of liposomes
[4] = set-up: method as in PMID 25798685; settings: DPPH, cited from earlier work
[5] = set-up: method as in PMID 25798685; settings: cited from earlier work
[6] = target: T1, soybean lipoxygenase (Glycine max, UniProt P08170); set-up: method as in PMID 25798685; settings: cited from earlier work
T1 sequence (P08170 1-839): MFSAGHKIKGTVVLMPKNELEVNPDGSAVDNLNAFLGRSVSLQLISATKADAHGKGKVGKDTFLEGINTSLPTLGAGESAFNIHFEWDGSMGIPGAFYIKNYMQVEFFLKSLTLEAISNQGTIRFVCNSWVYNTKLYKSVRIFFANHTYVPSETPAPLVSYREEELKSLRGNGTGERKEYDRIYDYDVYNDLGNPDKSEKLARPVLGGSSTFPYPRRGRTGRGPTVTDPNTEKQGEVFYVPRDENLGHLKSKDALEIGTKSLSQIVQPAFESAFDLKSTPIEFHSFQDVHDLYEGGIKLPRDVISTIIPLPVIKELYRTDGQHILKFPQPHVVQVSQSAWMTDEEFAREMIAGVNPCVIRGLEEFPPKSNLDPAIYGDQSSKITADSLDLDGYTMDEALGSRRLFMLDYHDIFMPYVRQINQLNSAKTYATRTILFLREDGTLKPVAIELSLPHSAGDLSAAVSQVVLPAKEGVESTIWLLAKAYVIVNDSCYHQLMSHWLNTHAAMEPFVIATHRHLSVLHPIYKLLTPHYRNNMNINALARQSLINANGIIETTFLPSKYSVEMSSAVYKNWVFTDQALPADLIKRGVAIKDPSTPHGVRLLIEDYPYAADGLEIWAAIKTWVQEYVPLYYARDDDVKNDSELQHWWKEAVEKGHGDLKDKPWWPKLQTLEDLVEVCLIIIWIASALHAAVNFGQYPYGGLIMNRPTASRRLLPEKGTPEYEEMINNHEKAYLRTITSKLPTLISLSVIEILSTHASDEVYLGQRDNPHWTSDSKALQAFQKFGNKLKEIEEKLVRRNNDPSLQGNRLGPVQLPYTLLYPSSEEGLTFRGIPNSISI

[7] = target: acetyl-cholinesterase (AChE) (Electrophorus electricus, UniProt O42275); settings: cited from earlier work
[8] = set-up: method as in PMID 25798685; settings: RP-TLC, methanol/water 70/30, SD < 10%; cited from earlier work
[9] = test system: L929 mouse fibroblasts cells; set-up: method as in PMID 25798685; settings: 24-h incubation, cited from earlier work
[10] = Reducing activity with the stable radical DPPH
Summary of the method: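 DPPH (final 0.05 mM) in absolute ethanol mixed with an equal volume of compound at 0.05 or 0.1 mM, ethanol as control. Absorbance at 517 nm read at room temperature after 20 and 60 min, expressed as reducing activity RA%.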

[11] = target: T1, soybean lipoxygenase; experiment: biochemical; format: biochemical; settings: soybean LOX; for IC50: read-out: LOX IC50
Summary of the method: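 Soybean LOX (enzyme solution 1/9 × 10^−4 w/v in saline) incubated at room temperature with sodium linoleate ([…]) in tris buffer pH 9. Compounds added from DMSO stocks. IC50 derived from several concentrations.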

[12] = Lipophilicity as RM values by RP-TLC; format: physicochemical; set-up: key: RM = log[(1/Rf) − 1]; settings: methanol/water 70/30, SD < 10%
Summary of the method: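 Reversed-phase TLC on silica gel plates impregnated with 5% (v/v) liquid paraffin, methanol/water 70/30 (v/v) mobile phase, saturated tanks at 24 °C, UV detection. RM = log[(1/Rf) − 1] from five Rf measurements.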

[13] = test system: L929 mouse fibroblasts cells; experiment: Cytotoxicity, propidium iodide fluorescence method; format: cell-based; settings: 24-h incubation
Protocol: The cytotoxicity of the synthesized derivatives against L929 mouse fibroblasts cells was determined using the propidium iodide (PI) fluorescence method in the presence of different concentrations (1–100 μM) of these compounds. The results are presented in Table 4 in the form of the % cell survival values as PI% for the examined compounds. […] Chalcones c7, c8, c11, and c12 follow.
L929 mouse fibroblasts cells were cultured in EMEM supplemented with 10% horse serum, 2 mM L-glutamine, 1 mM sodium pyruvate, 0.1 mM nonessential amino acids, 1.5 g/L sodium bicarbonate, and 100 μg/mL penicillin–streptomycin at 37 °C in a humidified atmosphere with 5% CO2. L929 cells were plated into 24-well plates at a density […] and allowed to attach and grow for 24 h. The supernatant in each well then replaced with medium containing various concentrations (1, 10, 20, 50 and 100 μM) of compounds a5–12, c5–12, di, and dii–dvi, which presented the more interesting results in the in vitro experiments. After 24-h incubation, the supernatant was removed and the cells were washed with PBS. The cells were detached with 0.25% trypsin, transferred to FACS tubes, and then centrifuged (1600 rpm for 5 min) and the pellet washed with PBS. After washing, the cells in the pellet were incubated with 5 μL propidium iodide (PI) solution (1 mg/mL) for 1 min. The PI fluorescence (cell death) was determined with flow cytometry, FACS Calibur, Coulter Epics XL-MCL (Beckman, Inc., Mount Holly, NJ, USA). The analysis of flow cytometry data was performed with the WinMDI analysis program (Table 4).

Sequence of acetyl-cholinesterase (AChE) (O42275 24-633): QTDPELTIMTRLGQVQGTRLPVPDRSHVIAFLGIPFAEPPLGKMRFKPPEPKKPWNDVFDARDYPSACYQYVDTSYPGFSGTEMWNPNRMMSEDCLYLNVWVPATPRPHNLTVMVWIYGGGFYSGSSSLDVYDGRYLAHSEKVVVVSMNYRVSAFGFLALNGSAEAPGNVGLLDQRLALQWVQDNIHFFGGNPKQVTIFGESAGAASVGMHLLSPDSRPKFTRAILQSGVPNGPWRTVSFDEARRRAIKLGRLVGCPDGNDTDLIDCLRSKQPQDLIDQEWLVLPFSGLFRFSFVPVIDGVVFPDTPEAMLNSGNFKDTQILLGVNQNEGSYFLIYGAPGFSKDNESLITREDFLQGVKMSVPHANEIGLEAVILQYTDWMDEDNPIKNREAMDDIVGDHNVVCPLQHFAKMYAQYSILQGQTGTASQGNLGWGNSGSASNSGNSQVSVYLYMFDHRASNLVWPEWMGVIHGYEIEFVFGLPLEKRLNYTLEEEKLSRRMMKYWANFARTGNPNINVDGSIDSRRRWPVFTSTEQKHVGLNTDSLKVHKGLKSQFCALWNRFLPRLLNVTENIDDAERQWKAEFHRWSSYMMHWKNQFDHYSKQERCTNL

| Structure (SMILES) | ABTS•+ Inhb. % @ 100 μM [1] | AAPH% @ 100 μM (anti-lipid peroxidation) [2] | RA% 100 μM 20 min [4] | RA% 100 μM 60 min [4] | ABTS•+ Inhb. % @ 100 μM [5] | % LOX Inhb. @ 100 μM [6] | % AChE Inhb. @ 100 μM [7] | RM [8] | 1 μM Average (% pi) ± σ [9] | 10 μM Average (% pi) ± σ [9] | 20 μM Average (% pi) ± σ [9] | 50 μM Average (% pi) ± σ [9] | 100 μM Average (% pi) ± σ [9] | RA% 100 μM 20 min [10] | RA% 100 μM 60 min [10] | % LOX Inhb. @ 100 μM [11] | RM [12] | 1 μM Average (% pi) ± σ [13] | 10 μM Average (% pi) ± σ [13] | 20 μM Average (% pi) ± σ [13] | further results |
| --- | --- | --- | --- | --- | --- | --- | --- | --- | --- | --- | --- | --- | --- | --- | --- | --- | --- | --- | --- | --- | --- |
| Cc1c(C)c2c(c(C)c1O)CCC(C)(C(=O)O)O2 (stereo not shown) [Trolox, reference compound] | 96% | 93% |  |  |  |  |  |  |  |  |  |  |  |  |  |  |  |  |  |  | % Inhb. of Liposomes LP @ 100 μM [3]: 69% |
| O=C(/C=C/c1ccc(OCc2ccc(Br)cc2)cc1)c1ccc(O)cc1 [a1, (E)-3-(4-((4-bromobenzyl)oxy)phenyl)-1-(4-hydroxyphenyl) prop-2-en-1-one] |  |  | 1% | 6% | No | 14% | 7% | 0.34 | 1 ± 0.6% | 5 ± 2.8% | 5.5 ± 0.71% | 32 ± 4.9% | 32 ± 4.9% |  |  |  |  |  |  |  |  |
| O=C(/C=C/c1cccc(Oc2ccccc2)c1)c1ccc(O)cc1 [a2, (E)-1-(4-hydroxyphenyl)-3-(3-phenoxyphenyl) prop-2-en-1-one] |  |  | 3% | 4% | No | 10% | 26% | 0.36 | 1 ± 0.5% | 3.5 ± 0.7% | 27.5 ± 8.9% | 63 ± 11.2% | 63 ± 11.2% |  |  |  |  |  |  |  |  |
| CN(C)c1ccc(/C=C/C=C/C(=O)c2ccc(O)cc2)cc1 [a3, (2E,4E)-5-(4-(dimethylamino)phenyl)-1-(4-hydroxyphenyl) penta-2,4-dien-1-one] |  |  | 18% | 17% | 12% | 56% | 50% | −0.69 | 14 ± 3.5% | 15 ± 0.8% | 19 ± 1.4% | 14 ± 0.7% | 14 ± 0.7% |  |  |  |  |  |  |  | IC50 ([6]; soybean LOX): 100 µM |
| O=C(/C=C/c1cccc2ccccc12)c1ccc(O)cc1 [a4, (E)-1-(4-hydroxyphenyl)-3-(naphthalen-1-yl) prop-2-en-1-one] |  |  | 7% | 3% | No | 44% | 25% | −0.26 | 8.5 ± 2.1% | 12 ± 4.2% | 29.5 ± 0.6% | 51 ± 9.9% | 51 ± 9.9% |  |  |  |  |  |  |  |  |
| O=C(/C=C/C=C/c1ccccc1)c1ccc(OCCCOc2ccc(C(=O)/C=C/C=C/c3ccccc3)cc2)cc1 [c7, (2E,2′E,4E,4′E)-1,1′-((propane-1,3-diylbis(oxy))bis(4,1-phenylene))bis(5-phenylpenta-2,4-dien-1-one)] | No | 82% |  |  |  |  |  |  |  |  |  |  |  | No | no | 41% | −0.77 | 22.5 ± 11.64% | 28.73 ± 11.78% | 25.4 ± 8.42% | 50 μM Average (% pi) ± σ [13]: 28.84 ± 5.62%; 100 μM Average (% pi) ± σ [13]: 28.84 ± 5.62% |
| CC(/C=C/C(=O)c1ccc(OCCCOc2ccc(C(=O)/C=C/C(C)=C/c3ccccc3)cc2)cc1)=C\c1ccccc1 [c8, (2E,2′E,4E,4′E)-1,1′-((propane-1,3-diylbis(oxy))bis(4,1-phenylene))bis(4-methyl-5-phenylpenta-2,4-dien-1-one)] | No | 75% |  |  |  |  |  |  |  |  |  |  |  | No | no | 26.5% | −0.85 | 35.72 ± 10.23% | 29.05 ± 9.62% | 35.69 ± 5.85% | 50 μM Average (% pi) ± σ [13]: 38.7 ± 4.96%; 100 μM Average (% pi) ± σ [13]: 38.7 ± 4.96% |
| O=C(/C=C/C(Br)=C\c1ccccc1)c1ccc(OCCCOc2ccc(C(=O)/C=C/C(Br)=C\c3ccccc3)cc2)cc1 [c9, (2E,2′E,4E,4′E)-1,1′-((propane-1,3-diylbis(oxy))bis(4,1-phenylene))bis(4-bromo-5-phenylpenta-2,4-dien-1-one)] | No | 32% |  |  |  |  |  |  |  |  |  |  |  | No | no | 24.5% | −0.86 | 12.5 ± 10.31% | 15.88 ± 6.31% | 28.76 ± 2.74% | 50 μM Average (% pi) ± σ [13]: 29.53 ± 6.87%; 100 μM Average (% pi) ± σ [13]: 29.53 ± 6.87% |
| O=C(/C=C/c1ccco1)c1ccc(OCCCOc2ccc(C(=O)/C=C/c3ccco3)cc2)cc1 [c10, (2E,2′E)-1,1′-((propane-1,3-diylbis(oxy))bis(4,1-phenylene))bis(3-(furan-2-yl)prop-2-en-1-one)] | 11% | 77% |  |  |  |  |  |  |  |  |  |  |  | No | no | 57% | 0.7 | 18.10 ± 11.82% | 13.48 ± 10.36% | 25.93 ± 9.73% | IC50 [11]: 85 µM; 50 μM Average (% pi) ± σ [13]: 32.11 ± 9.38%; 100 μM Average (% pi) ± σ [13]: 32.11 ± 9.38% |
| CN(C)c1ccc(/C=C/C=C/C(=O)c2ccc(OCCCCCCCOc3ccc(C(=O)/C=C/C=C/c4ccc(N(C)C)cc4)cc3)cc2)cc1 [evi, (2E,2′E,4E,4′E)-1,1′-((heptane-1,7-diylbis(oxy))bis(4,1-phenylene))bis(5-(4-(dimethylamino)phenyl)penta-2,4-dien-1-one)] | 79% | 64% |  |  |  |  |  |  |  |  |  |  |  | No | no | 65% |  |  |  |  | IC50 [11]: 76 µM; % Inhb. of Liposomes LP @ 100 μM [3]: 64% |
